Structures can show the parent of a compound that is named as a salt.

Common to all, as to assay type: biochemical
One experiment deals with T1, human LSD1(171-852) (Homo sapiens, UniProt O60341).
T1 construct: to give hLSD1(171-852) purified product; made in house; host or cells: Escherichia coli C43(DE3) pLysS
The experiment can be described thus: Measurement of LSD1 inhibitory activity (time-resolved fluorescence, biotin-histone H3 mono methylated K4 peptide). The conditions noted are these: read-out: LSD1 IC50 value. As to the method: When the turbidity reached 600 Klett units, the culture temperature was changed to 16° C., IPTG having a final concentration of 0.5 mM was added to induce expression, and the cells were cultured further for 21 hr. The culture medium was centrifuged at 9,000 g for 10 min, and Escherichia coli pellets were recovered.
Escherichia coli pellets in 9 L of the culture medium were suspended in 1340 mL of an extraction buffer (PBS, 5% (V/V) Glycerol), and 6700 units of Benzonase (Merck) were added. Using Branson ultrasonic disintegrator, the suspension was disrupted by ultrasonication for 3 min, and centrifuged at 33,000 g for 20 min, and the supernatant was recovered.
(5) Measurement of LSD1 Inhibitory Activity
After reaction at room temperature for 20 min, 1 mM 2-PCPA solution (5 μL) was added to terminate the reaction. A detection solution (800 mM potassium fluoride, 0.1% BSA) containing europium-labeled antihistone H3 antibody (Wako Pure Chemical Industries, Ltd.) and Streptavidin-XL665 (Cisbio) was further added by 5 μL, and the mixture was left standing for 60 min. A time-resolved fluorescence (excitation 320 nm, emission 615 nm, 665 nm) was measured by Envision (PerkinElmer). The LSD1 inhibitory rate (%) of the test compound was calculated by the following formula. inhibitory rate (%)=(1−(test compound count−blank)÷(control−blank)×100
The count of the LSD1 enzyme reaction mixture under compound non-addition conditions is indicated as control, and the count under compound non-addition and LSD1 enzyme non-addition conditions is indicated as blank.

The target of another experiment is T2, MAO-B (Homo sapiens, UniProt P27338).
T2 construct: purchased Sigma-Aldrich Co. LLC
T2 sequence (P27338 1-520): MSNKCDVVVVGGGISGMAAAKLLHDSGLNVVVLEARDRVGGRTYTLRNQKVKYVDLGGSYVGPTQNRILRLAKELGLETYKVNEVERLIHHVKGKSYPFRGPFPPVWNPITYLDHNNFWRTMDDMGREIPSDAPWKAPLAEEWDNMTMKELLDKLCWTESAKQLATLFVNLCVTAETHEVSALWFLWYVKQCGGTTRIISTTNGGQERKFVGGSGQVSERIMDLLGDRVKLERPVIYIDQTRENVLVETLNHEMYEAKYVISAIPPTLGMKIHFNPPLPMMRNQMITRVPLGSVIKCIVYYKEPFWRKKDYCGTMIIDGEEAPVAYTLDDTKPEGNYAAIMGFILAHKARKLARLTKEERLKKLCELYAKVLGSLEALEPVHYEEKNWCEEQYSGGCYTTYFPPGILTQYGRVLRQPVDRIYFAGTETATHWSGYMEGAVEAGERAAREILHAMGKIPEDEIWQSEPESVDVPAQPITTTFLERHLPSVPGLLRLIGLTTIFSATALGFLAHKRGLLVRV
The experiment can be described thus: Measurement of MAO-B inhibitory activity (MAO-Glo Assay). As for the experimental part:
(2) Measurement of MAO-B Inhibitory Activity
The MAO-B inhibitory activity evaluation described below followed the protocol of MAO-Glo (registered trademark) Assay of Promega KK.
(§1) A test compound dissolved in 4% DMSO was added by 12.5 μL to 25 μL reaction solution (100 mM HEPES (pH 7.5), 5% glycerol, 10% DMSO) containing 400 ng of MAO-B enzyme (Sigma-Aldrich Co. LLC.), and the mixture was reacted at room temperature for 10 min. MAO substrate (Promega KK) (16 μM) was added by 12.5 μL to start the reaction. After reaction at room temperature for 60 min, Luciferine detection reagent (Promega KK) (50 μL) was added to terminate the reaction. After reaction at room temperature for 20 min with stirring, the luminescence was measured by Envision (PerkinElmer). The MAO-B inhibitory rate (%) of the test compound was calculated by the following formula. inhibitory rate (%)=(1−(test compound count−blank)÷(control−blank)×100
The count of the MAO-B enzyme reaction mixture under compound non-addition conditions is indicated as control, and the count under compound non-addition and MAO-B enzyme non-addition conditions is indicated as blank.

In a further experiment the target is T3, MAO-A (Homo sapiens, UniProt P21397).
T3 construct: purchased Sigma-Aldrich Co. LLC
T3 sequence (P21397 1-527): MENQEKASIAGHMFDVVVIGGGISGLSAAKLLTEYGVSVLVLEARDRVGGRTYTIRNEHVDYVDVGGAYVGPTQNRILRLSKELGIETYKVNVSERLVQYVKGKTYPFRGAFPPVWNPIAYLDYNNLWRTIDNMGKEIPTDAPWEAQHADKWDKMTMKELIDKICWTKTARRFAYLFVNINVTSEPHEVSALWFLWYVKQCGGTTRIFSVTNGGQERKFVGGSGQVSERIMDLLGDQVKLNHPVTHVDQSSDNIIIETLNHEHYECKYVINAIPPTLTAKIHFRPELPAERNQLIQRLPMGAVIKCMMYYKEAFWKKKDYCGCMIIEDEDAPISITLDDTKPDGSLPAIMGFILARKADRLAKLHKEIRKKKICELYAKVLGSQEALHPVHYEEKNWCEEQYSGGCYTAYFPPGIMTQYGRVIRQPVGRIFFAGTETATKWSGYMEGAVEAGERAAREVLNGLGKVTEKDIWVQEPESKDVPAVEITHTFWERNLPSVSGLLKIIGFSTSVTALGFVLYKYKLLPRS
The experiment can be described thus: Measurement of MAO-A inhibitory activity (MAO-Glo Assay). As for the experimental part: (1) Measurement of MAO-A Inhibitory Activity
The MAO-A inhibitory activity evaluation described below followed the protocol of MAO-Glo (registered trademark) Assay of Promega KK.
as §1, with “glycerol)” for “glycerol, 10% DMSO)”, “MAO-A” for “MAO-B”, “(160” for “(16”
The count of the MAO-A enzyme reaction mixture under compound non-addition conditions is indicated as control, and the count under compound non-addition and MAO-A enzyme non-addition conditions is indicated as blank.

With `CC(C)(C)c1ccc(-c2ccc(C(=O)Nc3ccc([C@@H]4C[C@H]4NCC4CC4)cc3)cc2)cc1` (relative stereo) [Example 120, 4′-tert-butyl-N-(4-{trans-2-[(cyclopropylmethyl)amino]cyclopropyl}-phenyl)biphenyl-4-carboxamide], the IC50 was 1.6 µM at human LSD1(171-852), greater than 10 µM on MAO-B and greater than 10 µM against MAO-A.
For `O=C(Nc1ccc([C@@H]2C[C@H]2NCC2CC2)cc1)c1ccc2c(c1)CCCC2` (relative stereo) [Example 85, N-(4-{trans-2-[(cyclopropylmethyl)amino]cyclopropyl}-phenyl)-5,6,7,8-tetrahydronaphtha-lene-2-carboxamide], the IC50 is less than 0.1 µM at human LSD1(171-852), 4.9 µM against MAO-B and 9.1 µM against MAO-A.
In the case of `O=C(Nc1ccc([C@@H]2C[C@H]2NCc2ccccc2)cc1)c1cccc(NCc2ccccc2)c1` (relative stereo) [Example 29, 3-(benzylamino)-N-{4-[trans-2-(benzylamino)cyclopropyl]phenyl}benzamide], the IC50 at human LSD1(171-852) was 0.11 µM; at MAO-B, greater than 10 µM; against MAO-A, 5.2 µM.
Taken in the same sequence, the figures for `O=C(Nc1ccc([C@@H]2C[C@H]2NCc2cscn2)cc1)c1cccc(C(F)(F)F)c1` (relative stereo) [Example 72, N-(4-{trans-2-[(1,3-thiazol-4-ylmethyl)amino]cyclopropyl}phenyl)-3-(trifluoromethyl)benzamide dihydrochloride] were less than 0.1 µM, greater than 10 µM and 3.1 µM.
The like results for `CN1CCN(c2ccc(C(=O)Nc3ccc([C@@H]4C[C@H]4NCC4CC4)cc3)cc2)CC1` (relative stereo) [Example 130, N-(4-{trans-2-[(cyclopropyl-methyl)amino]cyclo-propyl}phenyl)-4-(4-methylpiperazin-1-yl)benzamide] were, in that order, less than 0.1 µM, greater than 10 µM and greater than 10 µM.
`O=C(Nc1ccc([C@@H]2C[C@H]2NCC2CC2)cc1)c1ccc(-c2ccccc2)o1` (relative stereo) [Example 123, N-(4-{trans-2-[(cyclopropyl-methyl)amino]cyclo-propyl}phenyl)-5-phenyl-2-furamide]: the values for the IC50 on human LSD1(171-852), on MAO-B and against MAO-A were less than 0.1 µM, greater than 10 µM and 5 µM, respectively.
The like results for `O=C(Nc1ccc([C@@H]2C[C@H]2NCC2CC2)cc1)c1ccc(C(F)(F)F)cc1` (relative stereo) [Example 69, N-(4-{trans-2-[(cyclopropylmethyl)amino]cyclopropyl}phenyl)-4-(trifluoromethyl)benzamide hydrochloride] were, in that order, less than 0.1 µM, greater than 10 µM and greater than 10 µM.
Consider `O=C(Nc1ccc([C@@H]2C[C@H]2NCC2CC2)cc1)c1ccc(C2CCCCC2)cc1` (relative stereo) [Example 89, 4-cyclohexyl-N-(4-{trans-2-[(cyclopropylmethyl)amino]cyclopropyl}-phenyl)benzamide], for which the figures for the IC50 at human LSD1(171-852), at MAO-B and against MAO-A were 0.1 µM, greater than 10 µM and greater than 10 µM, respectively.
For `O=C(Nc1ccc([C@@H]2C[C@H]2NCC2CC2)cc1)c1ccc(OCc2ccccc2)cc1` (relative stereo) [Example 71, 4-(benzyloxy)-N-(4-{trans-2-[(cyclopropylmethyl)amino]cyclopropyl}phenyl)benzamide hydrochloride], the IC50 at human LSD1(171-852) is less than 0.1 µM; on MAO-B it was greater than 10 µM; against MAO-A, greater than 10 µM.
In the case of `O=C(Nc1ccc([C@@H]2C[C@H]2NCC2CC2)cc1)c1ccc2nc(-c3ccsc3)[nH]c2c1` (relative stereo) [Example 97, N-(4-{trans-2-[(cyclopropylmethyl)-amino]cyclopropyl}-phenyl)-2-(3-thienyl)-1H-benzimidazole-6-carboxamide], the IC50 is less than 0.1 µM on human LSD1(171-852), greater than 10 µM on MAO-B and greater than 10 µM on MAO-A.

These data come from patent US9682925B2, “Cyclopropaneamine compound” (TAKEDA PHARMACEUTICAL COMPANY LIMITED, priority 2011, dated 2017).
